In US9491935B2, “Animal models of neurological disorders” (Ann & Robert H. Lurie Children's Hospital of Chicago, priority 2009, dated 2016):

What was measured:
[1] = administered 3 hours prior to cocaine; cited from earlier work
CA1 pyramidal neurons = experiment: IPSC recordings in CA1 pyramidal cells of hippocampal slices; format: cell-based, mouse; conditions: 0.25 mM in recording ACSF; for spontaneous IPSCs (sIPSCs, mIPSCs): Evf2TS/TS and wild-type mice; for evoked IPSCs: wild-type and Evf2TS/TS mice
Description: Transverse hippocampal slices ([…]) were prepared from 3-5-month-old Evf2^TS/TS mice. Slices were cut in ice-cold (˜4° C.) oxygenated ACSF and then were allowed to recover for 1-2 h before being transferred to the recording chamber where they were continuously superfused with solution heated to 32-34° C. and saturated with 95% O2/5% CO2. The standard extracellular solution contained 124 mM NaCl, 3 mM KCl, 1.25 mM KH2PO4, 2.0 mM CaCl2, 1.3 mM MgCl2, 26 mM NaHCO3 and 10 mM glucose. The concentration of MgCl2 was raised to 2.0 mM and that of CaCl2 decreased to 1.4 mM in the slicing solution. […].
Somatic whole-cell recordings were obtained from CA1 pyramidal neurons under visual guidance using infrared differential interference contrast microscopy. Patch pipettes were pulled from borosilicate glass capillary tubing (A-M Systems). Internal solution for the patch pipettes contained 120 mM cesium methane sulphonate, 10 mM CsCl, 5 mM NaCl, 10 mM HEPES, 10 mM EGTA, 5 mM TEA-Cl, 4 mM Mg-ATP, 0.3 mM GTP and 5 mM QX-314 (pH 7.3-7.4), adjusted with CsOH, osmolarity 290±10 mOsm.
Voltage-clamp recordings were performed using Axopatch-200B (Axon Instruments). In all of our recordings, series resistance was <22 MΩ and was compensated at 80%. The recorded signal was low-pass filtered at 5 kHz and digitized at 10 kHz with a PCI-MIO-16E-4 board (National Instruments). All data were stored on a PC computer with custom software using C++ Builder 5.0 (Borland) and a NI DAQ 6.5 driver (National Instruments).
Evoked IPSCs were elicited at 0.1-0.07 Hz with a bipolar Pt/Ir electrode (2×25 μn) positioned on the stratum radiatum within 150 μm of the cell being recorded (Schaffer collateral-commisural fibers location site). At the beginning of each experiment, stimulus intensity was adjusted to evoke […] with amplitude of 0.4-0.2 nA. Evoked IPSCs were recorded at holding potential from −70 mV to +20 mV with 10-mV voltage steps after blocking EPSCs with a solution containing CNQX and D-AP5.
Spontaneous IPSCs were analyzed using MiniAnalysis 6.0.3 software (Synaptosoft). All events were manually selected on the basis of their kinetics. Between 250 and 450 individual events were analyzed for each cell. Post-recording analyses of evoked IPSPs were carried out using Clampfit 10 (Axon Instruments). All statistical values were evaluated with Origin 8 (MicroCal Software). Values are presented as mean±s.e.m. Statistical differences were established at P<0.05 using the Student t test, unless otherwise indicated.

Molecule	locomotor response to cocaine [1]	spontaneous IPSCs (sIPSCs, mIPSCs) (CA1 pyramidal neurons)	spontaneous IPSCs (sIPSCs, mIPSCs) (CA1 pyramidal neurons; listed as picrotoxin)	evoked IPSCs (CA1 pyramidal neurons)	evoked IPSCs (CA1 pyramidal neurons; listed as picrotoxin)
C=CC(N)CCC(=O)O (centres unmarked) [GVG]	can attenuate locomotor response	–	–	–	–
Picrotoxin	–	blocked all IPSC activity	abolished	blocked evoked IPSCs	abolished
